Source: publication PMC2805240 (Journal of chemical information and modeling, 2009)

What was measured:
[1] = target: anthrax toxin lethal factor (Bacillus anthracis, UniProt P15917); experiment: biochemical
macrophage = settings: cited from earlier work
LF = settings: read-out: IC50 in a LF enzyme assay; cited from earlier work

Sequence of anthrax toxin lethal factor (P15917 34-809 limits assumed): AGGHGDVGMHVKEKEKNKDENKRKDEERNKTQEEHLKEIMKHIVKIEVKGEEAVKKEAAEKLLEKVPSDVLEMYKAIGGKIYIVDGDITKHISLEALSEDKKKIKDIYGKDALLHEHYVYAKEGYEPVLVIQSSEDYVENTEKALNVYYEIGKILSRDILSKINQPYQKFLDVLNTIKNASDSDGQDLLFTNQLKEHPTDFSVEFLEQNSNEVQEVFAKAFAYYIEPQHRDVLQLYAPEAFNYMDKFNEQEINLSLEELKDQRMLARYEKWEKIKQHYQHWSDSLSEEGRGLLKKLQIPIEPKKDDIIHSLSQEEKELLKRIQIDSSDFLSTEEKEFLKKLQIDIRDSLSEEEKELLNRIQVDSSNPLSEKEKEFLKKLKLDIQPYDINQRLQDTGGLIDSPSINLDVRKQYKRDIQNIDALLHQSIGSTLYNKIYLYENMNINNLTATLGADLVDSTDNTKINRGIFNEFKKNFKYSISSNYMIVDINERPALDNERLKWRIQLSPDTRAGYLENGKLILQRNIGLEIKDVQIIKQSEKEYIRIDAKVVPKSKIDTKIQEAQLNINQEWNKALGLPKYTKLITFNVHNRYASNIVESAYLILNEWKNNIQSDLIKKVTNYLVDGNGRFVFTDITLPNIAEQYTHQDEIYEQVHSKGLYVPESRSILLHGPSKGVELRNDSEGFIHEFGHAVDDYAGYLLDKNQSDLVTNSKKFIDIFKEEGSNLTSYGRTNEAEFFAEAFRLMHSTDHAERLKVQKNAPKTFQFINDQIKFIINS

| Compound | IC50 [1] [µM] | IC50 (macrophage) [µM] | IC50 (LF) [µM] |
| --- | --- | --- | --- |
| CCN(Cc1ccccc1)Cc1cc(I)cc(I)c1O [compound 5426202, 2-[(benzyl(ethyl)amino)methyl]-4,6-diiodophenol] | 49.5 ± 1.5 | – | – |
| CCN(Cc1ccccc1)Cc1cc(Cl)ccc1O [compound 5421384, 2-[(benzyl(ethyl)amino)methyl]-4-chlorophenol] | 67.5 ± 2 | – | – |
| Cc1cc(S(=O)(=O)N[C@@H](C(=O)NO)C2CCOCC2)ccc1F [compound 40, (2R)-2-[(4-fluoro-3-methylphenyl)sulfonylamino]-N-hydroxy-2-(tetrahydro-2H-pyran-4-yl)acetamide] | – | 0.21 | 0.054 |
| CCN(Cc1ccccc1)Cc1cc(Br)ccc1O [compound 5428736, 2-[(benzyl(ethyl)amino)methyl]-4-bromophenol] | 73.9 ± 4.5 | – | – |
| CNC(=O)[C@H](Cc1c[nH]c2ccccc12)NC(=O)[C@@H](CC(=O)NO)CC(C)C [GM6001/M364205, ilomastat] | 10.2 ± 0.72 | – | – |
